Assay results from US10174156B2, “Hyperbranched polyester with a hydrophobic nucleus for solubilizing poorly soluble active substances” (BASF SE, priority 2009, dated 2019).

Test: physchem
Settings: pH 7, aqueous buffer, thermodynamic from solid
Description: 2 g of polymer were weighed into a 50 ml beaker. Subsequently, 0.2 g of active ingredient in each case was weighed into the mixture in order to obtain an oversaturated solution. […] The mixture was then stirred at room temperature with the aid of a magnetic stirrer for 72 h. After a rest time of 1 h, excess (i.e. unsolubilized) active ingredient was removed by filtration. The clear or opaque solution thus obtained was subsequently analyzed for its active ingredient content by means of UV spectroscopy or HPLC.

- solubility at 72 h: < 100 µg/mL
Structure (SMILES): Clc1ccccc1C(c1ccccc1)(c1ccccc1)n1ccnc1 [Clotrimazole]
